# Values joined by “and” are separate entries in the source; they are usually repeats but may differ in a detail not shown here. Equal values may be shown once. Read-outs that look alike come from different tables or passages of the source.
# Experiments:
# [1] = system: Staphylococcus aureus MN 8; assay type: cell-based
# [2] = system: TSST-1 toxin produced by S. aureus; assay type: cell-based, Staphylococcus aureus MN 8
# [3] = system: Lactobacillus gasseri (ATCC 9857); assay type: cell-based
# [4] = system: Lactobacillus crispatus (LMG 12005); assay type: cell-based
# [5] = system: Lactobacillus iners (LMG 18916); assay type: cell-based
Structure (SMILES),Change in S. Aureus CFU/ml vs. control [1],% TSST-1 Change (ug/ml) vs. control [2],% TSST-1 Change (ug/ml/mM) vs. control [2],also measured
[Cl-].[Cl-].[Zn+2] [Zinc chloride],>2 log,,,
[Cl-].[Cl-].[Mg+2] [Magnesium chloride],≦1 log,47%,,
CC(O)C(=O)[O-].CC(O)C(=O)[O-].[Ca+2] (stereo not shown) [Calcium lactate],<1 log,49% and 89% and 90%,5.6% and 1.7%,Change in L. gasseri vs. control [3]: <1 log; Change in L. cripatus vs. control [4]: <1 log; Change in L. iners vs. control [5]: <1 log
"CCCCCCCCCCCCCCCCCC(=O)O [Calcium stearate, calcium stearate]",,65% and 62%,6.6% and 0.6%,
[Cl][Fe][Cl] [Ferrous chloride],>2 log,,,
[Cl][Cu][Cl] [Copper chloride],>3 log,,,
"O=C1O[C@H]([C@@H](O)CO)C(O)=C1O [Calcium ascorbate, calcium ascorbate]",>2 log,,,growth of S. aureus relative to controls [1]: virtually eliminate the growth
[Ca+2].[Cl-].[Cl-] [Calcium chloride],≦1 log,82%,2.5% and 1.1%,"% TSST-1 Change (ug/ml) vs. control ([2]; 18-20 h, 37° C.): 37%"

# From patent US8603513B2 (priority 2007, dated 2013)
